Experimental data from PubChem BioAssay AID330 (DTP/NCI, 2004).
Inconclusive results and toxic doses are left out.

System: P388 leukemia ip, CD2F1 mice, survival T/C
Test: NCI In Vivo Anticancer Drug Screen. Data for tumor model P388 Leukemia (intraperitoneal) in CD2F1 (CDF1) mice
Conditions: endpoint: median survival time, higher = longer survival
Method in brief: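 Mice carrying the transplanted tumor received test compound or vehicle. Survival was recorded in each group, and the value is the treated-group measurement divided by that of the vehicle-treated control group.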

[1] = dose: 50.0 mg/kg/injection, schedule: Q01DX009 (ip), vehicle: Klucel (hydroxypropylcellulose) (HPC)
[2] = dose: 100.0 mg/kg/injection, schedule: Q01DX009 (ip), vehicle: Klucel (hydroxypropylcellulose) (HPC)
[3] = dose: 200.0 mg/kg/injection, schedule: Q01DX009 (ip), vehicle: Klucel (hydroxypropylcellulose) (HPC)

CCCCCCC1(/C=C/c2ccc(Cl)cc2Cl)OCCCO1
T/C (dose: 50.0 mg/kg/injection, schedule: Q01DX009 (ip), vehicle: saline + alcohol): 94 % of control
T/C (dose: 100.0 mg/kg/injection, schedule: Q01DX009 (ip), vehicle: saline + alcohol): 97 % of control
T/C (dose: 200.0 mg/kg/injection, schedule: Q01DX009 (ip), vehicle: saline + alcohol): 97 % of control

CCCCCCCCCC(=O)C(=O)c1ccc(O)c(C)c1O
T/C [1]: 94 % of control
T/C [2]: 94 % of control
T/C [3]: 94 % of control

CCN1C(Cl)=NS(=O)(=O)c2ccccc21
T/C (dose: 15.0 mg/kg/injection, schedule: Q01DX005 (ip), vehicle: saline with Tween-80): 116 % of control
T/C (dose: 30.0 mg/kg/injection, schedule: Q01DX005 (ip), vehicle: saline with Tween-80): 113 % of control
T/C (dose: 60.0 mg/kg/injection, schedule: Q01DX005 (ip), vehicle: saline with Tween-80): 100 % of control

NS(=O)(=O)c1ccc(N=NC2C(=O)N(C(=O)CC(=O)Nc3ccc(C(=O)O)cc3)N=C2c2ccccc2)cc1 (stereo not drawn)
T/C (dose: 50.0 mg/kg/injection, schedule: Q01DX005 (ip), vehicle: saline with Tween-80): 97 % of control
T/C (dose: 100.0 mg/kg/injection, schedule: Q01DX005 (ip), vehicle: saline with Tween-80): 92 % of control
T/C (dose: 200.0 mg/kg/injection, schedule: Q01DX005 (ip), vehicle: saline with Tween-80): 90 % of control

COc1ccc(C2=CC(OO)(C(C)(C)C)C(=O)C(C(C)(C)C)=C2)cc1.Oc1ccccc1C=NCCC[N-]CCCN=Cc1ccccc1O.[Co] (stereo not drawn)
T/C [1]: 101 % of control
T/C [2]: 101 % of control
T/C [3]: 100 % of control

Cc1ccc(S(=O)OC2CC(C)CCC2C(C)C)cc1 (stereo not drawn)
T/C [1]: 100 % of control
T/C [2]: 101 % of control
T/C [3]: 100 % of control

COc1cc2c(cc1O)C(=O)c1[nH]c3ccccc3c1CC2
T/C (dose: 100.0 mg/kg/injection, schedule: Q04DX003 (ip), vehicle: saline): 107 % of control
T/C (dose: 200.0 mg/kg/injection, schedule: Q04DX003 (ip), vehicle: saline): 107 % of control
T/C (dose: 400.0 mg/kg/injection, schedule: Q04DX003 (ip), vehicle: saline): 101 % of control

COC(=O)C1(c2cc3c(cc2OC)N(C)C2CCCCC32)CCCCCc2c1[nH]c1ccccc21 (stereo not drawn)
T/C (dose: 12.5 mg/kg/injection, schedule: Q01DX001 (ip), vehicle: distilled water + Tween-80): 106 % of control
T/C (dose: 25.0 mg/kg/injection, schedule: Q01DX001 (ip), vehicle: distilled water + Tween-80): 100 % of control
T/C (dose: 50.0 mg/kg/injection, schedule: Q01DX001 (ip), vehicle: distilled water + Tween-80): 104 % of control
T/C (dose: 100.0 mg/kg/injection, schedule: Q01DX001 (ip), vehicle: distilled water + Tween-80): 100 % of control
T/C (dose: 200.0 mg/kg/injection, schedule: Q01DX001 (ip), vehicle: distilled water + Tween-80): 97 % of control

N#CC12CCCCC1CCC1(C2)OCCO1 (stereo not drawn)
T/C [1]: 111 % of control
T/C [2]: 100 % of control
T/C [3]: 108 % of control

Nc1cccnc1C1OCCO1
T/C (dose: 50.0 mg/kg/injection, schedule: Q01DX009 (ip), vehicle: other): 100 % of control
T/C (dose: 100.0 mg/kg/injection, schedule: Q01DX009 (ip), vehicle: other): 103 % of control

O=C1C=C(C2=C(O)c3ccccc3C2=O)c2ccccc21 (tested in a mixture with another compound)
T/C [1]: 105 % of control
T/C [2]: 105 % of control

COc1cc2c(cc1OC)-c1c(C)c3ccc(OC)c(NCCO)c3c[n+]1CC2
T/C (dose: 50.0 mg/kg/injection, schedule: Q04DX003 (ip), vehicle: water): 102 % of control
T/C (dose: 100.0 mg/kg/injection, schedule: Q04DX003 (ip), vehicle: water): 107 % of control

COC(=O)C(C)NC(=O)Cc1ccccc1 (stereo not drawn)
T/C (dose: 100.0 mg/kg/injection, schedule: Q04DX003 (ip), vehicle: saline with Tween-80): 104 % of control
T/C (dose: 200.0 mg/kg/injection, schedule: Q04DX003 (ip), vehicle: saline with Tween-80): 100 % of control
T/C (dose: 400.0 mg/kg/injection, schedule: Q04DX003 (ip), vehicle: saline with Tween-80): 90 % of control

Cn1c(=O)[nH]c(=O)c2nc(-c3ccccc3)cnc21
T/C (dose: 100.0 mg/kg/injection, schedule: Q04DX002 (ip), vehicle: Klucel (hydroxypropylcellulose) (HPC)): 105 % of control
T/C (dose: 400.0 mg/kg/injection, schedule: Q04DX002 (ip), vehicle: Klucel (hydroxypropylcellulose) (HPC)): 86 % of control

CN(C)C1=c2c(=O)n(C)c(=O)n(C)c2=NC2C=CC=CN12 (stereo not drawn)
T/C (dose: 50.0 mg/kg/injection, schedule: Q01DX005 (ip), vehicle: Klucel (hydroxypropylcellulose) (HPC)): 100 % of control
T/C (dose: 100.0 mg/kg/injection, schedule: Q01DX005 (ip), vehicle: Klucel (hydroxypropylcellulose) (HPC)): 96 % of control
T/C (dose: 200.0 mg/kg/injection, schedule: Q01DX005 (ip), vehicle: Klucel (hydroxypropylcellulose) (HPC)): 86 % of control
